How the values were obtained:
CDK9/cyclin T1 = CDK9/cyclin T1 (Homo sapiens, UniProt P50750); assay: Inhibition of human recombinant CDK9/cyclin T expressed in baculovirus-infected insect cells
[1] = molecular target: Cyclin-dependent kinase 5/CDK5 activator 1 (Homo sapiens, UniProt Q00535)
Description: Inhibition of human recombinant CDK5/p25 expressed in Escherichia coli

BT-549 = assay: Antiproliferative activity against human BT549 cells after 72 hrs by ViaLight assay; type: functional; conditions: BT-549, 72 h
CCRF-CEM = assay: cells; conditions: Homo sapiens, 72 h
Description: Antiproliferative activity against human CCRF-CEM cells after 72 hrs by ViaLight assay

SN12C = assay: Antiproliferative activity against human SN12C cells after 72 hrs by ViaLight assay; type: functional
U-937 = assay: Antiproliferative activity against human U937 cells after 72 hrs by ViaLight assay; type: functional, cell-based
SK-MEL-28 = assay: Antiproliferative activity against human SK-MEL-28 cells after 72 hrs by ViaLight assay; type: functional; conditions: SK-MEL-28, 72 h
HeLa = assay: Antiproliferative activity against human HeLa cells after 72 hrs by ViaLight assay; type: functional, cell-based
Raji = assay: Antiproliferative activity against human Raji cells after 72 hrs by ViaLight assay; type: functional, cell-based
HEK-293T = assay: Antiproliferative activity against human 293T cells after 72 hrs by ViaLight assay; type: functional, cell-based
SW-620 = assay: cells; conditions: Homo sapiens, SW-620, 72 h
Description: Antiproliferative activity against human SW620 cells after 72 hrs by ViaLight assay

[2] = read-out: LC50 (the source's name)
[3] = read-out: pLC50 (the source's name) (converted)

Chain of Cyclin-dependent kinase 5/CDK5 activator 1 (Q00535 whole entry): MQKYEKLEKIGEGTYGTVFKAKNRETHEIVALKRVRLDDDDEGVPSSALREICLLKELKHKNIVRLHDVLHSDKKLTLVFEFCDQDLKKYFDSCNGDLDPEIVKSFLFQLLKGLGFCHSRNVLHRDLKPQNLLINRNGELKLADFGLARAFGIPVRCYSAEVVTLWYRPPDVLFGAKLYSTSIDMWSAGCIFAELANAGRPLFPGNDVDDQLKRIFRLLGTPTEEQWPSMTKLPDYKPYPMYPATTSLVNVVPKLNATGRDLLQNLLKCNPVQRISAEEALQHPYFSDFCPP
Chain of Cyclin-dependent kinase 5/CDK5 activator 1 (Q15078 whole entry, further chain): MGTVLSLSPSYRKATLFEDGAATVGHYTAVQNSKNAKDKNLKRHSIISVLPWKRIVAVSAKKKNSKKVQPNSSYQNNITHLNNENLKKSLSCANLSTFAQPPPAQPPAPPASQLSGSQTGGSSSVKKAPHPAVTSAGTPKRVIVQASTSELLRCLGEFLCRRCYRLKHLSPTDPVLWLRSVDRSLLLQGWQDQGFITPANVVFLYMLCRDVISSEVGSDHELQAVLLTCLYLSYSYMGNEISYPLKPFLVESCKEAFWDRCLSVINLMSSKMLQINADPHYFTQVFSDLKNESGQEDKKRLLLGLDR
Chain of CDK9/cyclin T1 (O60563 whole entry): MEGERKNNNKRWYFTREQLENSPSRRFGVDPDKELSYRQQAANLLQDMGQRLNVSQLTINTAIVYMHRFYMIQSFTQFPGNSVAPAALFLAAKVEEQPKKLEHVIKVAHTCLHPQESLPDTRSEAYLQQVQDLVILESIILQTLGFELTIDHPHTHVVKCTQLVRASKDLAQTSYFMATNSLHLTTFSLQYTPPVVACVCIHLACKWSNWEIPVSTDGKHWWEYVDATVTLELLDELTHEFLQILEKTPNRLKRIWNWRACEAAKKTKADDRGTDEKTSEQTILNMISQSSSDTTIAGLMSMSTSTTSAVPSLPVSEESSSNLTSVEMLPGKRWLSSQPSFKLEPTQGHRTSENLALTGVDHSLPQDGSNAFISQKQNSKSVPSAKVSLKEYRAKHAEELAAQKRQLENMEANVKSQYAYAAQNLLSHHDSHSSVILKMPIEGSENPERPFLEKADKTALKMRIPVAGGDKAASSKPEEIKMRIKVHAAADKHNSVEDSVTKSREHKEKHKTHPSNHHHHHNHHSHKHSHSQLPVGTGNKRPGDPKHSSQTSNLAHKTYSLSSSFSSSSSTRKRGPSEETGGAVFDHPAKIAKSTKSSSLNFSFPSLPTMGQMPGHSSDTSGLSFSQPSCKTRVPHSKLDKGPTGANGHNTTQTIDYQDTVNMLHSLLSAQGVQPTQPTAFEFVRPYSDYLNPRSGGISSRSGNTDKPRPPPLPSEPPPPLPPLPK
Chain of CDK9/cyclin T1 (P50750 whole entry): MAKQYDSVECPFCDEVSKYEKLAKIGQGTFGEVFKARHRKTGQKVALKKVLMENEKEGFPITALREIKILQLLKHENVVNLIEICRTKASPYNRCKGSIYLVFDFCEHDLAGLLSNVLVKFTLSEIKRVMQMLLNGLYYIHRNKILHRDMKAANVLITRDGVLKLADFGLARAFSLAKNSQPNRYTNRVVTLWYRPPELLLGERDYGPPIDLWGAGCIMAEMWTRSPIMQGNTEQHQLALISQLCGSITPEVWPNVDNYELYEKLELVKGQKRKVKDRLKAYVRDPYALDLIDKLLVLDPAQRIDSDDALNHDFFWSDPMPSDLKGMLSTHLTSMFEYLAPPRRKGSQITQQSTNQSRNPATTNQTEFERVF

Compound: CC[C@H](CO)Nc1nc(NCc2ccccc2)n2ncc(C(C)C)c2n1
- IC50 (CDK9/cyclin T1): 0.043 µM
- IC50 [1]: 0.07 µM
- GI50 (BT-549; read-out: GI50): 1.56 µM
- CC50 (BT-549; [2]): 36.1 µM
- TGI (BT-549; read-out: TGI): 5.29 µM
- GI50 (BT-549; read-out: pGI50 (converted)): 2.45 µM
- CC50 (BT-549; [3]): 36.3 µM
- TGI (BT-549; read-out: pTGI): 5.25 µM
- GI50 (CCRF-CEM): 0.65 µM
- TGI (CCRF-CEM): 9.26 µM
- CC50 (CCRF-CEM; read-out: LC50): > 100 µM
- GI50 (CCRF-CEM; read-out: pGI50 (converted)): 0.646 µM
- CC50 (CCRF-CEM; read-out: pLC50 (converted)): 100 µM
- TGI (CCRF-CEM; read-out: pTGI): 9.33 µM
- GI50 (SN12C; read-out: GI50): 2.41 µM
- CC50 (SN12C; [2]): 58.1 µM
- TGI (SN12C; read-out: TGI): 14.4 µM
- GI50 (SN12C; read-out: pGI50 (converted)): 3.02 µM
- CC50 (SN12C; [3]): 57.5 µM
- TGI (SN12C; read-out: pTGI (converted)): 14.5 µM
- Activity (U-937): Dose-dependent effect
- GI50 (SK-MEL-28; read-out: GI50): 1.16 µM
- CC50 (SK-MEL-28; [2]): 16.9 µM
- TGI (SK-MEL-28; read-out: TGI): 3.82 µM
- GI50 (SK-MEL-28; read-out: pGI50 (converted)): 1.15 µM
- CC50 (SK-MEL-28; [3]): 17 µM
- TGI (SK-MEL-28; read-out: pTGI (converted)): 3.8 µM
- Activity (HeLa): Dose-dependent effect
- Activity (Raji): Dose-dependent effect
- Activity (HEK-293T): Dose-dependent effect
- GI50 (SW-620): 1.38 µM
- TGI (SW-620): 5.56 µM
- CC50 (SW-620; read-out: LC50): > 100 µM
- GI50 (SW-620; read-out: pGI50 (converted)): 1.12 µM
- CC50 (SW-620; read-out: pLC50 (converted)): 100 µM
- TGI (SW-620; read-out: pTGI): 5.5 µM

From ChEMBL document CHEMBL1143353, “Pyrazolo[1,5-a]-1,3,5-triazine as a purine bioisostere: access to potent cyclin-dependent kinase inhibitor (R)-roscovitine analogue” (J Med Chem, 2009)
